The values that follow come from article PMC2897950 (Cellular microbiology, 2010).

In the assay the target is T1, EhSir2a (EhSir2a-HH) (Entamoeba histolytica, UniProt C4LSH3).
T1 sequence (C4LSH3 1-383): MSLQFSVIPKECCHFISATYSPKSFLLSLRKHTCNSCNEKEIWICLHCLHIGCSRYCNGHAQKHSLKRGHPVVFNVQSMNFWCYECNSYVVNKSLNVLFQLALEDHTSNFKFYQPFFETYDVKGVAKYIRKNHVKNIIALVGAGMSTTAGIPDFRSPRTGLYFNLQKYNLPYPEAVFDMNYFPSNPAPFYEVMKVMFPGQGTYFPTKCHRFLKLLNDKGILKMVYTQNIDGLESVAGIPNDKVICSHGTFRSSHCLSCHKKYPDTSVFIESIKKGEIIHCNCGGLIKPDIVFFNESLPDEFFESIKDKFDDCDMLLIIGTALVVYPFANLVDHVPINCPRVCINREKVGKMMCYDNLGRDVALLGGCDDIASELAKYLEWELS
Description: fluorescent deacetylase assay. The format is biochemical. To be noted: 500 µM NAD+, 37 °C, 2 h; co-substrate of deacetylation.

For the compound `NC(=O)c1ccc[n+]([C@@H]2O[C@H](COP(=O)(O)OP(=O)(O)OC[C@H]3O[C@@H](n4cnc5c(N)ncnc54)[C@H](O)[C@@H]3O)[C@@H](O)[C@H]2O)c1` [NAD^+], the “fluorescent deacetylase assay (Biomol kit), enzyme on Ni-NTA beads” value is listed as “EhSir2a showed high levels of deacetylase activity when NAD^+ was added”.
